For series [1] the following is noted: in vivo.
For series [2] the following is noted: no unit, species or route given; in mg/kg; cited from earlier work.

Data on 2 compounds can be found in US8778685B2 (priority 2009, dated 2014).

For the compound `N#CC(O)c1ccccc1` (stereo not drawn) [mandelonitrile], in series [1], the “times less toxic than sodium cyanide” value is recorded as “approximately 18”. Further, in series [2], the LD50 value is 116.
`CC(C)(O)C#N` [acetone cyanohydrin]: the LD50 value in series [2] was 18.65.
